In patent US20140271920A1, “SKIN OINTMENT FORMULATION” (priority 2013, published 2014) one finds effectiveness data, which are given here for one compound.

The experiment deals with person's skin. Briefly: Experimentation with ingredient concentrations in the ointment formulation applied to a person's skin. The experiment is classed as in vivo, human. Conditions: Zinc Oxide amount lesser than 4.70% of the formulation. The source says: The ointment formulation includes an occlusive and nourishing ingredient in an amount configured to reduce moisture evaporation from and seal the skin. The specific occlusive and nourishing ingredient in the subject ointment formulation may be Lanolin. Lanolin is additionally selected for its ability to supply the skin with a majority of the 23 proteinogenic, i.e., protein-building, amino acids, which combine into peptide chains to form the building blocks of a vast array of proteins. In an exemplary 126.0 ml volume sample of the ointment formulation, the specific volume of the Lanolin ingredient was 103.53 ml, or 82.17%. Although Lanolin made up 82.17% of the exemplary sample, the allowable range of the Lanolin ingredient in the ointment formulation is approximately 74-85%.
The ointment formulation having the specific disclosed volume of Lanolin is for a moderate to severe condition of the skin. Although the amount of Lanolin may be increased for more severe conditions, the disclosed specific concentration of 82.17% is near the maximum that may be used while maintaining the necessary amounts of the other ingredients. Accordingly, as the volume of Lanolin is adjusted for severity of the particular skin condition, the amounts of other ingredients to be described with specificity below would have to be adjusted accordingly. […]

Consider `[O]=[Zn]` [Zinc Oxide], for which the effectiveness entry was “has not shown to be effective”.
